Laboratory results published in the CheMixHub ionic liquid set.

Test: xn = mol fraction of the nth substance listed
Conditions: 100 kPa

CCCCCCCC[n+]1ccc(C)cc1.[Br-] + CO/N=C(\C(=O)N[C@@H]1C(=O)N2C(C(=O)[O-])=C(CSc3nc(=O)c(=O)[n-]n3C)CS[C@H]12)c1csc(N)n1.[Na+].[Na+] + O
viscosity [mPa·s]
Conditions	288.15 K	293.15 K	298.15 K	303.15 K	308.15 K
x2 = 0, x1 = 0.0006354	1.179	1.031	0.915	0.817	0.737
x2 = 0, x1 = 0.0009577	1.196	1.046	0.929	0.833	0.749
x2 = 0, x1 = 0.001283	1.217	1.063	0.941	0.844	0.76
x2 = 0.0003362, x1 = 0.0009574	1.244	1.089	0.97	0.867	0.781
x2 = 0.0003451, x1 = 0.001283	1.269	1.108	0.977	0.863	0.786
x2 = 0.0003509, x1 = 0.0006352	1.243	1.076	0.949	0.847	0.77
x2 = 0.0008524, x1 = 0.0006349	1.314	1.15	1.021	0.909	0.816
x2 = 0.0008642, x1 = 0.001282	1.358	1.183	1.047	0.937	0.842
x2 = 0.0008856, x1 = 0.0009569	1.333	1.169	1.039	0.929	0.828
x2 = 0.001395, x1 = 0.0006346	1.411	1.235	1.094	0.974	0.873
x2 = 0.0014, x1 = 0.0009564	1.452	1.252	1.109	0.989	0.885
x2 = 0.00141, x1 = 0.001281	1.459	1.271	1.124	1.004	0.901
x2 = 0.001941, x1 = 0.0006342	1.52	1.33	1.174	1.046	0.936
x2 = 0.001965, x1 = 0.0009558	1.543	1.351	1.194	1.064	0.953
x2 = 0.00197, x1 = 0.001281	1.576	1.374	1.209	1.084	0.97
x2 = 0.002508, x1 = 0.0006339	1.642	1.433	1.264	1.124	1.006
x2 = 0.00254, x1 = 0.0009553	1.671	1.46	1.287	1.145	1.023
x2 = 0.00255, x1 = 0.00128	1.705	1.487	1.308	1.165	1.042
x2 = 0.003119, x1 = 0.0006335	1.786	1.558	1.372	1.219	1.091
x2 = 0.003121, x1 = 0.0009547	1.817	1.587	1.397	1.239	1.108
x2 = 0.003147, x1 = 0.001279	1.858	1.622	1.427	1.267	1.133
x2 = 0.003941, x1 = 0.0006329	2.01	1.747	1.535	1.359	1.212
x2 = 0.003972, x1 = 0.0009539	2.048	1.776	1.562	1.382	1.233
x2 = 0.003997, x1 = 0.001278	2.093	1.814	1.593	1.411	1.256
x2 = 0.004812, x1 = 0.0006324	2.281	1.979	1.732	1.528	1.36
x2 = 0.004853, x1 = 0.0009531	2.331	2.019	1.768	1.557	1.385
x2 = 0.004881, x1 = 0.001277	2.385	2.057	1.804	1.588	1.409
x2 = 0.005508, x1 = 0.000632	2.52	2.189	1.911	1.681	1.492
x2 = 0.005554, x1 = 0.0009524	2.59	2.238	1.952	1.714	1.52
x2 = 0.005588, x1 = 0.001276	2.64	2.289	1.996	1.757	1.559
